The record followed here is article PMC2773450 (Analytical biochemistry, 2008).

As usually defined, the IC50 is the concentration needed to halve the response being measured. High values mean weaker potency, low ones greater potency.

This experiment deals with T1, O^6-alkylguanine—DNA alkyltransferase (AGT) (Homo sapiens, UniProt P16455).
T1 sequence (P16455 1-207): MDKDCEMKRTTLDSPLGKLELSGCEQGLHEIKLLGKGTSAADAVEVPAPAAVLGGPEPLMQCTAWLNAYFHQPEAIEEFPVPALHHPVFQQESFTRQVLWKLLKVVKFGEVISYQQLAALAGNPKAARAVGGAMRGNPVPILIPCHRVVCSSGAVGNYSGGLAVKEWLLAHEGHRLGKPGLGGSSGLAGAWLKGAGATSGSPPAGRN

In turn, O^6-(thiophenemethyl)guanine [TMG] displayed an IC50 of 23 nM.
